Assay results reported in US20250295648A1 (priority 2024, published 2025).

Columns and labels:
clinical = details: human, in vivo
Procedure: Blood was collected for NLX-112 plasma concentration measurements on Days 14, 21, 28, 42 and 70 (Visits 4, 5, 6, 7 and 9).
The concentration of NLX-112 was determined in 120 human plasma samples collected from the clinical study. The bioanalysis was performed in the calibration range of 1.0 ng/ml to 1620 ng/ml using a 35 μL sample volume.
The Qualification Runs 1 and 2 contained two calibration curves, six sets of QC samples at eight levels (QC1 to QC8), as well as UPLC and Tecan Carry-over test samples. The analytical run 1 contained two calibration curves, four sets of QC samples at three levels (QC L, M and H), as well as […] and Tecan Carry-over test samples. The qualification and analysis was performed in an exploratory setting.
The analytical instrumentation consisted of an Acquity UPLC system coupled to a Xevo-TQS micro tandem quadrupole mass spectrometer (Waters Corp., Milford, MA, USA). […]
A combined calibration curve was constructed from the two sets of calibration samples for each run. […] The lower limit of quantification (LLOQ) for the method was 1.0 ng/mL and the upper limit of quantification (ULOQ) was 1620 ng/mL of NLX-112 in human plasma.
The mean NLX-112 blood plasma concentration measured in treated patients on study days 14 (Visit 4), […] (Visit 5), 28 (Visit 6), 42 (Visit 7), and 70 (Visit 9) is shown in Table 5. […]

[1] = tested on: overall PD symptoms in PD patients with LID; test: Clinical Global Impression of Change (CGI-C); assay type: in vivo, human
Excerpt: The CGI-C is a clinician-oriented scale that assesses the total improvement in the patient's condition relative to the clinical global impression of severity (CGI-S) scale conducted at baseline. The CGI-C rates the patient's condition from 0 to 7, with a rating of 0 indicating “no assessment”, a rating of 1 indicating “very much better”, and a rating of 7 indicating “very much worse”.

PD patients with LID [2] = test: King's Parkinson's Disease Pain Scale (KPPS); assay type: in vivo, human; details: for KPPS, mean change from baseline: per-protocol set, p < 0.01 vs baseline
Excerpt: The KPPS is a rater-interview-based scale conducted with the patient and caregiver (if available). It is a 14-item scale covering 7 domains of pain: • z. Musculoskeletal pain • aa. Chronic pain • bb. Fluctuation-related pain • cc. Nocturnal pain • dd. Orofacial pain • ee. Edema/swelling; discoloration • ff. Radicular pain Each item is scored by severity (0-3; none to very severe) multiplied by frequency (0-4; never to all the time), for an item sub score of 0-12, resulting in a total score from 0 to 168. Ratings are based on the previous month, or in the case of this study, the intervening period since the previous clinic visit (about 3 weeks). Treatment effects would be analyzed as change from baseline for total score and for individual pain domains.

PD patients with LID [3] = test: Hospital Anxiety Depression Scale (HADS); assay type: in vivo, human
Excerpt: The HADS is used to determine the levels of anxiety and depression that a person is experiencing. The questionnaire consists of 7 items related to anxiety and 7 related to depression. Each item on the questionnaires is scored from 0-3, which means that a person can score between 0 and 21 for either anxiety or depression.

6-OH-DA lesioned rats = details: rat, in vivo; cited from earlier work
5-HT1A receptors = biological target: T1, 5-HT1A receptors (Homo sapiens, UniProt P08908); details: cited from earlier work
T1 sequence (P08908 1-422): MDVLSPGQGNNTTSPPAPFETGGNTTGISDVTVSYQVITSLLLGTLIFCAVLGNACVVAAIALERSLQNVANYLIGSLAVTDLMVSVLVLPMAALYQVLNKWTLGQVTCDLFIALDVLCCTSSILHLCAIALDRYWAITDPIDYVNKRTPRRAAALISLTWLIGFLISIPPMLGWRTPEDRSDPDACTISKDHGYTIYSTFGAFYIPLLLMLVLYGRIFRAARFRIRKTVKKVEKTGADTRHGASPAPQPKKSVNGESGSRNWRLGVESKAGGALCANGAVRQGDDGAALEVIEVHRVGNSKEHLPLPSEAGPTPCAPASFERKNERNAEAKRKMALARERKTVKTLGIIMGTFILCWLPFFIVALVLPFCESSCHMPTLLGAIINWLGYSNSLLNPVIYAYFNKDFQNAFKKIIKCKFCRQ

[4] = per-protocol set (n = 15), Baseline
[5] = per-protocol set, Δ D 28 (end of up-titration)

Cc1ccc(CNCC2(F)CCN(C(=O)c3ccc(F)c(Cl)c3)CC2)nc1 [NLX-112, (3-chloro-4-fluoro-phenyl)-[4-fluoro-4-{[(5-methyl-pyridin-2-ylmethyl)-amino]-methyl}piperidin-1-yl]methanone]
concentration at 14 day (clinical): 32.3 ng/mL
concentration at 25 day (clinical): 38.7 ng/mL
CGI-C: proportion of patients minimally, much or very much improved ([1]; Day 28): 33%
CGI-C: proportion of patients minimally, much or very much improved ([1]; Day 42): 53%
CGI-C Minimally improved, number of patients ([1]; Stable Dosing (d 42), n = 15): 3
CGI-C Minimally improved, proportion of patients ([1]; Stable Dosing (d 42), n = 15): (20%)
CGI-C Minimally worse, number of patients ([1]; Stable Dosing (d 42), n = 15): 1
CGI-C Minimally worse, proportion of patients ([1]; Stable Dosing (d 42), n = 15): (6.7%)
CGI-C Much improved, number of patients ([1]; Stable Dosing (d 42), n = 15): 4
CGI-C Much improved, proportion of patients ([1]; Stable Dosing (d 42), n = 15): (27%)
CGI-C No change, number of patients ([1]; Stable Dosing (d 42), n = 15): 6
CGI-C No change, proportion of patients ([1]; Stable Dosing (d 42), n = 15): (40%)
CGI-C Total Improved, number of patients ([1]; Stable Dosing (d 42), n = 15): 8
CGI-C Total Improved, proportion of patients ([1]; Stable Dosing (d 42), n = 15): (53%)
CGI-C Very much improved, number of patients ([1]; Stable Dosing (d 42), n = 15): 1
CGI-C Very much improved, proportion of patients ([1]; Stable Dosing (d 42), n = 15): (6.7%)
CGI-C Minimally improved, number of patients ([1]; Up-Titration (d 28), n = 15): 3
CGI-C Minimally improved, proportion of patients ([1]; Up-Titration (d 28), n = 15): 20%
CGI-C Minimally worse, number of patients ([1]; Up-Titration (d 28), n = 15): 1
CGI-C Minimally worse, proportion of patients ([1]; Up-Titration (d 28), n = 15): 6.7%
CGI-C Much improved, number of patients ([1]; Up-Titration (d 28), n = 15): 2
CGI-C Much improved, proportion of patients ([1]; Up-Titration (d 28), n = 15): 13%
CGI-C No change, number of patients ([1]; Up-Titration (d 28), n = 15): 9
CGI-C No change, proportion of patients ([1]; Up-Titration (d 28), n = 15): 60%
CGI-C Total Improved, number of patients ([1]; Up-Titration (d 28), n = 15): 5
CGI-C Total Improved, proportion of patients ([1]; Up-Titration (d 28), n = 15): 33%
CGI-C Very much improved, number of patients ([1]; Up-Titration (d 28), n = 15): 0
CGI-C overall PD symptoms, NLX-112 vs placebo ([1]; days 28 and 42): no statistically significant differences
KPPS total score (reported pain), change from baseline (PD patients with LID [2]; Day 42, also seen with placebo): statistically significant improvement
KPPS, mean (PD patients with LID [2]; [4]): 16.0
KPPS, mean change from baseline (PD patients with LID [2]; Δ D 28 (end of up-titration)): −4.6
KPPS, mean change from baseline (PD patients with LID [2]; Δ D 42 (end of stable dosing)): −4.8
anxiety and depression (HADS) (PD patients with LID [3]; Days 28 or 42): no consistent statistically significant effect
HADS (Anxiety), mean (PD patients with LID [3]; [4]): 4.5
HADS (Depression), mean (PD patients with LID [3]; [4]): 3.7
HADS (Anxiety), mean change from baseline (PD patients with LID [3]; [5]): −0.5
HADS (Depression), mean change from baseline (PD patients with LID [3]; [5]): −0.4
HADS (Depression), mean change from baseline (PD patients with LID [3]; per-protocol set, Δ D 42 (end of stable dosing)): −0.6
rotation behavior (6-OH-DA lesioned rats): increases rotation behavior
agonist efficacy at 5-HT1A receptors (5-HT1A receptors): full agonist properties
selectivity for 5-HT1A receptors (5-HT1A receptors): exceptional selectivity
